The target of test [1] is T1, WT Shaker KV channel (ShH4IR) (Drosophila melanogaster, UniProt P08510, DEL6-46).
T1 construct: expressed in transfected cells; host or cells: Xenopus laevis oocytes (RNA injection)
Briefly: Two-electrode voltage clamp of Shaker KV channels expressed in Xenopus laevis oocytes: WT. Conditions: for EC50: WT, pH 7.4, concentration-response (Eq. 3), read-out: EC50 of the G(V) shift (apparent affinity). The test is classed as cell-based. The source says: (§1) The Shaker H4 channel (GenBank accession no. NM_167595.3; [Kamb et al., 1987]), with removed N-type inactivation due to a Δ6-46 deletion (ShH4IR, in Bluescript II KS(+) plasmid; [Hoshi et al., 1990]), is referred to as the WT Shaker KV channel. […] Therefore, we specifically refer to the two added arginines just outside S4 (M356R/A359R) as the 2R motif. Mutations were introduced with site-directed mutagenesis and verified with sequencing as described previously ([Börjesson et al., 2010]). RNA injection and oocyte handling were performed as before ([Börjesson et al., 2010]; [Ottosson et al., 2015]). All animal experiments were approved by the Linköping’s local Animal Care and Use Committee.
(§2) Electrophysiological experiments were made 1–6 d after RNA injection. K^+ currents were measured with the two-electrode voltage-clamp technique (GeneClamp 500B amplifier; Axon Instruments) as described previously ([Ottosson et al., 2015]; [Silverå Ejneby et al., 2018]). The amplifier’s leak compensation was used, and the currents were low-pass filtered at 5 kHz. The control solution contained (in mM) 88 NaCl, 1 KCl, 15 HEPES, 0.4 CaCl2, and 0.8 MgCl2, and pH was set with NaOH. All experiments were made at room temperature (20°C–23°C). The holding potential was set to −80 mV (or −100 mV if the mutant was not fully closed at −80 mV).
(§3) Stock solutions were stored at −20°C and diluted in control solution just before experiments. The test solution was added to the oocyte bath manually with a syringe. […] To make sure all Wu50 molecules were negatively charged, the pH of the control solution was set to 9.0 before the experiments.
(§4) The conductance, G(V), was calculated as G(V)=I/(V−VK), (1) where I is the steady-state current measured at the end of each test-voltage sweep (100 ms after onset; Clampfit 10.5; Molecular Devices), V is the absolute membrane voltage, and VK is the reversal potential for K^+ ions (set to −80 mV). The conductance was fitted with a Boltzmann equation (GraphPad Prism 5; GraphPad Software, Inc.) GK(V)=GMAX/{1+exp[(V½−V)/s]}, (2) where GMAX is the amplitude (maximal conductance) of the curve, V is the absolute membrane voltage, V1/2 is the midpoint, and s is the slope. The resin-acid–induced G(V) shift was calculated as V1/2 (compound) − V1/2 (control). The relative change in GMAX was calculated as GMAX (compound) / GMAX (control). The concentration dependence for the G(V) shifts was calculated as ΔV= ΔVMAX/(1 +EC50/c), (3) where ΔV is the voltage shift, ΔVMAX is the voltage shift at saturating concentration, c is the concentration of the tested compound, and EC50 is the concentration at which half-maximum response occurs.

In test [2] the target is T2, Shaker KV channel with the 2R motif (M356R/A359R) (Drosophila melanogaster, UniProt P08510, A359R/DEL6-46/M356R).
T2 construct: expressed in transfected cells; host or cells: Xenopus laevis oocytes (RNA injection)
T2 sequence (P08510 other isoform, or with tags, fused parts or gaps DEL6-46/M356R/A359R): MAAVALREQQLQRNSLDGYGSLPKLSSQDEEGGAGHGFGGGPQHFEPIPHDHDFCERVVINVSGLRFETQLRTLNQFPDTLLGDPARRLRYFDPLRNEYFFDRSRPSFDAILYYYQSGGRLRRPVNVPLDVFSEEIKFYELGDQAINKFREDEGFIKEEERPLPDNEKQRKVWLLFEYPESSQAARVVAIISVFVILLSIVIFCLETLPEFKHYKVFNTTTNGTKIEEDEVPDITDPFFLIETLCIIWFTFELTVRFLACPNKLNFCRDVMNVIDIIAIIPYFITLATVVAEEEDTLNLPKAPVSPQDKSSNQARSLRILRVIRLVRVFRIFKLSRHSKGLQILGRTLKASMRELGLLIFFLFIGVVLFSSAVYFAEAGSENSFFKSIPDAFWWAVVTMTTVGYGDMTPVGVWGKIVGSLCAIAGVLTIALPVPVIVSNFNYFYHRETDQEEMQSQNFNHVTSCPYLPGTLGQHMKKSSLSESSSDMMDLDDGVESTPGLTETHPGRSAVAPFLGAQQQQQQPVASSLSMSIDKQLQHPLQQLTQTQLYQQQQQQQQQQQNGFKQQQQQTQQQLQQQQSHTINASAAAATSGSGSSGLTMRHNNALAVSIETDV
Kind of test: Two-electrode voltage clamp in Xenopus oocytes: 2R motif channel. The format is cell-based.
Excerpt: as §1, §2, §3, §4
On the technique in general: Two-electrode voltage clamp is typically applied to oocytes expressing channels or transporters.

Test [3] has as its target T3, Shaker KV channel R362Q (Drosophila melanogaster, UniProt P08510, DEL6-46/R362Q).
T3 construct: expressed in transfected cells; host or cells: Xenopus laevis oocytes (RNA injection)
Conditions: Fig. 1 E; ref Ottosson et al., 2017; Silverå Ejneby et al., 2018; cited from earlier work.

Test [4] deals with T4, Shaker KV channel R362Q/R365Q (Drosophila melanogaster, UniProt P08510, DEL6-46/R362Q/R365Q).
T4 construct: expressed in transfected cells; host or cells: Xenopus laevis oocytes (RNA injection)
T4 sequence (P08510 other isoform, or with tags, fused parts or gaps DEL6-46/R362Q/R365Q): as the sequence (P08510 other isoform, or with tags, fused parts or gaps DEL6-46/M356R/A359R) above, with R315M, R318A, R321Q, R324Q counted along it
Kind of test: Two-electrode voltage clamp in Xenopus oocytes: R362Q/R365Q. The test is classed as cell-based. The following applies: 100 μM, pH 7.4, R362Q/R365Q.
Excerpt: (§5) The Shaker H4 channel (GenBank accession no. NM_167595.3; [Kamb et al., 1987]), with removed N-type inactivation due to a Δ6-46 deletion (ShH4IR, in Bluescript II KS(+) plasmid; [Hoshi et al., 1990]), is referred to as the WT Shaker KV channel. Addition of two positively charged arginines (M356R/A359R) at the extracellular top of the voltage sensor increases the effect of charged lipophilic compounds ([Ottosson et al., 2014], [2015], [2017]). […] However, for the resin-acid derivatives studied in the present investigation, R362 reduced the effect. Therefore, we specifically refer to the two added arginines just outside S4 (M356R/A359R) as the 2R motif. Mutations were introduced with site-directed mutagenesis and verified with sequencing as described previously ([Börjesson et al., 2010]). RNA injection and oocyte handling were performed as before ([Börjesson et al., 2010]; [Ottosson et al., 2015]). All animal experiments were approved by the Linköping’s local Animal Care and Use Committee.
(§6) Electrophysiological experiments were made 1–6 d after RNA injection. K^+ currents were measured with the two-electrode voltage-clamp technique (GeneClamp 500B amplifier; Axon Instruments) as described previously ([Ottosson et al., 2015]; [Silverå Ejneby et al., 2018]). […]
as §4, with “The conductance was fitted with a Boltzmann equation (GraphPad Prism 5; GraphPad Software, Inc.) GK(V)=GMAX/{1+exp[(V½−V)/s]}, (2) where GMAX is the amplitude (maximal conductance) of the curve, V is the absolute membrane voltage, V1/2 is the midpoint, and s is the slope.” left out

The target in test [5] is T5, Shaker KV channel R362Q/W454A/F416A (Drosophila melanogaster, UniProt P08510, DEL6-46/F416A/R362Q/W454A).
T5 construct: expressed in transfected cells; host or cells: Xenopus laevis oocytes (RNA injection)
T5 sequence (P08510 other isoform, or with tags, fused parts or gaps DEL6-46/R362Q/F416A/W454A): as the sequence (P08510 other isoform, or with tags, fused parts or gaps DEL6-46/M356R/A359R) above, with R315M, R318A, R321Q, F375A, W413A counted along it
Kind of test: Two-electrode voltage clamp in Xenopus oocytes: R362Q/W454A/F416A. The format is cell-based. The following applies: 100 μM, pH 7.4, R362Q/W454A/F416A.
Excerpt: as §5, §6
as §4, with “The conductance was fitted with a Boltzmann equation (GraphPad Prism 5; GraphPad Software, Inc.) GK(V)=GMAX/{1+exp[(V½−V)/s]}, (2) where GMAX is the amplitude (maximal conductance) of the curve, V is the absolute membrane voltage, V1/2 is the midpoint, and s is the slope.” left out

For test [6], the target named is T6, Shaker KV channel W454A (Drosophila melanogaster, UniProt P08510, DEL6-46/W454A).
T6 construct: expressed in transfected cells; host or cells: Xenopus laevis oocytes (RNA injection)
T6 sequence (P08510 other isoform, or with tags, fused parts or gaps DEL6-46/W454A): as the sequence (P08510 other isoform, or with tags, fused parts or gaps DEL6-46/M356R/A359R) above, with R315M, R318A, W413A counted along it
Kind of test: Two-electrode voltage clamp in Xenopus oocytes: W454A. The test is classed as cell-based. Conditions: 100 μM, pH 7.4, W454A.
Excerpt: as §5, §6
as §4, with “The conductance was fitted with a Boltzmann equation (GraphPad Prism 5; GraphPad Software, Inc.) GK(V)=GMAX/{1+exp[(V½−V)/s]}, (2) where GMAX is the amplitude (maximal conductance) of the curve, V is the absolute membrane voltage, V1/2 is the midpoint, and s is the slope.” left out

Test [7] concerns the target T7, Shaker KV channel M356R/A359R/R362Q (Drosophila melanogaster, UniProt P08510, A359R/DEL6-46/M356R/R362Q).
T7 construct: expressed in transfected cells; host or cells: Xenopus laevis oocytes (RNA injection)
Kind of test: Two-electrode voltage clamp in Xenopus oocytes: 2R motif/R362Q. The test is classed as cell-based. Conditions: 100 μM, pH 7.4, M356R/A359R/R362Q.
Excerpt: as §5, §2
Stock solutions were stored at −20°C and diluted in control solution just before experiments. The test solution was added to the oocyte bath manually with a syringe. […] To make sure all Wu50 molecules were negatively charged, the pH of the control solution was set to 9.0 before the experiments. This pH change had only small effects on channel kinetics and the G(V) relation.
as §4, with “The conductance was fitted with a Boltzmann equation (GraphPad Prism 5; GraphPad Software, Inc.) GK(V)=GMAX/{1+exp[(V½−V)/s]}, (2) where GMAX is the amplitude (maximal conductance) of the curve, V is the absolute membrane voltage, V1/2 is the midpoint, and s is the slope.” left out

The target in test [8] is T3, Shaker KV channel R362Q. Kind of test: Two-electrode voltage clamp in Xenopus oocytes: R362Q. The test is classed as cell-based. Conditions: 100 μM, pH 7.4, R362Q.
Excerpt: as §5, §6
as §4, with “The conductance was fitted with a Boltzmann equation (GraphPad Prism 5; GraphPad Software, Inc.) GK(V)=GMAX/{1+exp[(V½−V)/s]}, (2) where GMAX is the amplitude (maximal conductance) of the curve, V is the absolute membrane voltage, V1/2 is the midpoint, and s is the slope.” left out

Test [9] has as its target T8, Shaker KV channel R362Q/R365Q/W454A/F280I (Drosophila melanogaster, UniProt P08510, DEL6-46/F280I/R362Q/R365Q/W454A).
T8 construct: expressed in transfected cells; host or cells: Xenopus laevis oocytes (RNA injection)
Briefly: Two-electrode voltage clamp in Xenopus oocytes: R362Q/R365Q/W454A/F280I. The test is classed as cell-based. The following applies: 100 μM, pH 7.4, R362Q/R365Q/W454A/F280I.
Excerpt: as §5, with “Mutations were introduced with site-directed mutagenesis and verified with sequencing as described previously ([Börjesson et al., 2010]). RNA injection and oocyte handling were performed as before ([Börjesson et al., 2010]; [Ottosson et al., 2015]). All animal experiments were approved by the Linköping’s local Animal Care and Use Committee.” left out
as §6
The conductance, G(V), was calculated as G(V)=I/(V−VK), (1) where I is the steady-state current measured at the end of each test-voltage sweep (100 ms after onset; Clampfit 10.5; Molecular Devices), V is the absolute membrane voltage, and VK is the reversal potential for K^+ ions (set to −80 mV). […] The resin-acid–induced G(V) shift was calculated as V1/2 (compound) − V1/2 (control). The relative change in GMAX was calculated as GMAX (compound) / GMAX (control). […]

The subject of test [10] is Shaker KV channel binding sites (S3/S4, S4/pore, residual). Briefly: Additive model of site contributions to the G(V) shift (least squares fit). Details: species or system Drosophila melanogaster. An excerpt: We also considered a reduced dataset of five mutants for Wu50 to make the comparison between the two compounds equitable (Table S1).
The G(V) shift for each mutant was expressed as a sum of contribution from the various sites: ΔVmodel=ΔVS3/S4+ΔVS4/pore+ΔVResidual, (4) where ΔVS3/S4 is the G(V) shift due to compound binding to the S3/S4 site, ΔVS4/pore is the G(V) shift due to compound binding to the S4/pore site, and ΔVResidual is the G(V) shift due to compound binding to other sites, including the top-VSD site.
Following the assumptions based on observations made using MD simulations, ΔVS3/S4 was set to 0 if the 2R motif was missing (i.e., in the WT channel), ΔVS4/pore could adopt one of four values depending on the type of mutation (R362/W454 = WT configuration, R362Q, W454A, or R362Q/W454A), and ΔVResidual was assumed to be the same for all mutants.
The model further assumed that there is a residual effect that can be due to binding to the VSD-top site or to any other unidentified site and that the contributions due to binding to the S3/S4 site and the S4/pore site depend upon mutations at this site.

T3 sequence (P08510 other isoform, or with tags, fused parts or gaps DEL6-46/R362Q): as the sequence (P08510 other isoform, or with tags, fused parts or gaps DEL6-46/M356R/A359R) above, with R315M, R318A, R321Q counted along it
T1 sequence (P08510 other isoform, or with tags, fused parts or gaps DEL6-46): as the sequence (P08510 other isoform, or with tags, fused parts or gaps DEL6-46/M356R/A359R) above, with R315M, R318A counted along it
T8 sequence (P08510 other isoform, or with tags, fused parts or gaps DEL6-46/F280I/R362Q/R365Q/W454A): as the sequence (P08510 other isoform, or with tags, fused parts or gaps DEL6-46/M356R/A359R) above, with F239I, R315M, R318A, R321Q, R324Q, W413A counted along it
T7 sequence (P08510 other isoform, or with tags, fused parts or gaps DEL6-46/M356R/A359R/R362Q): as the sequence (P08510 other isoform, or with tags, fused parts or gaps DEL6-46/M356R/A359R) above, with R321Q counted along it

`C[C@@]1(COS(=O)(=O)O)CCC[C@]2(C)c3cc(Cl)c(Cl)c(Cl)c3CC[C@@H]12` [Wu181]: the EC50 in test [1] stood at 1.6 ± 0.6 µM. The “Increase of the maximum G(V) shift by the 2R motif” value in test [2] (2R motif versus WT, Wu50 pH 9.0, Wu161 and Wu181 pH 7.4) was determined as 590%. Besides, the “ΔVMAX (maximum G(V) shift)” value in test [2] (2R motif, pH 7.4, concentration-response (Eq. 3)) is −53.6 ± 4.0 mV.
As for `CO/N=C1\C[C@H]2[C@](C)(C(=O)O)CCC[C@]2(C)c2cc(Br)c(C(C)C)cc21` [Wu32], the “Change of the G(V)-shifting effect on neutralization of R362 (R362Q versus WT)” value (“Change of the G(V)-shifting effect” for short) in test [3] is “increase in effect”.
Take `CC/C=C\C/C=C\C/C=C\C/C=C\C/C=C\C/C=C\CCC(=O)O` [DHA, docosahexaenoic acid]: the “Change of the G(V)-shifting effect” value in [3] is “no noticeable change”.
Consider `CC(C)c1ccc2c(c1)CC[C@H]1[C@](C)(C(=O)O)CCC[C@]21C` [DHAA, dehydroabietic acid], for which the “Change of the G(V)-shifting effect” value in test [3] is given as “increase in effect”.
`CC(C)c1ccc2c(c1)CC[C@H]1[C@](C)(COS(=O)(=O)O)CCC[C@]21C` [Wu161]: the “GMAX (rel.)” value is listed as 0.99 rel in test [4]; 1.03 rel in [1] (100 μM, pH 7.4, WT); 0.47 rel in test [5]; 0.86 rel in [6]; 1.19 rel in test [7]; 1.05 rel in test [8]. Further, the “GMAX (rel.)” value is reported as 1.20 rel in test [2] (100 μM, pH 7.4, M356R/A359R (=2R)) and 0.64 rel in test [9]. The EC50 in test [1] was 43.7 ± 6.3 µM; in [2] (2R motif, pH 7.4, concentration-response (Eq. 3), read-out: EC50 of the G(V) shift (apparent affinity)), 36.4 ± 9 µM. The “ΔVS3/S4 (contribution of the S3/S4 site in the presence of the 2R mutations)” value in test [10] (five mutants) was −17 mV. In test [10] (five mutants), the “ΔVS4/pore, R362Q configuration” value fell in the range of 0 to −6 mV. Besides, the “ΔVS4/pore, WT S4/pore site” value in test [10] (five mutants) is on record as −7 to −13 mV. Also, in test [10] (no clear difference between five-mutants and eight-mutants datasets), the “ΔVS4/pore, W454A configuration” value was “+2 to −6 mV”.

(Values after article PMC7944402, “Resin-acid derivatives bind to multiple sites on the voltage-sensor domain of the Shaker potassium channel” (The Journal of General Physiology, 2021).)
